Source: patent US11992473B2, “Compositions and methods for diagnosis and treatment of conditions related to the quality of aging and longevity” (Epitracker, Inc., priority 2018, dated 2024)

Experiments:
Format in all cases: cell-based, human
[1] = tested on: Venular endothelial cells, peripheral blood mononuclear cells; test: BioMAP Diversity PLUS SAg system (T cell stimulation, Th1 type chronic inflammation); conditions: human cell system mimicking T-cell driven chronic inflammation and autoimmune diseases; concentrations ranging from 740 nm to 6.7 μM (FIG. 2)
Experimental: (§1) This study examined activities of small molecules discovered in dolphin serum that had protective profiles against diseases of aging which can impact quality of life and longevity. These molecules were tested across 12 human primary cell-based systems as part of DiscoverX's BioMAP Diversity Plus program. These systems are designed to model complex human tissue and disease biology of the vasculature, skin, lung, and inflammatory tissues. Quantitative measurements of biomarker activities across this broad panel, along with comparative analysis of biological activities of known bioactive agents were used to predict and compare the efficacy and function of the four compounds. Compounds were tested at four concentrations (740 nm and 2.2, 6.7 and 20 μM).
(§2) BioMAP panels consist of human primary cell-based systems designed to model different aspects of the human body in an in vitro format. The 12 systems in the Diversity PLUS panel allow test agent characterization in an unbiased way across a broad set of systems modeling various human disease states. BioMAP systems are constructed with one or more primary cell types from healthy human donors, with stimuli (such as cytokines or growth factors) added to capture relevant signaling networks that naturally occur in human tissue or pathological conditions. Vascular biology is modeled in both a Th1 (3C system) and a Th2 (4H system) inflammatory environment, as well as in a Th1 inflammatory state specific to arterial smooth muscle cells (CASM3C system). Additional systems recapitulate aspects of the systemic immune response including monocyte-driven Th1 inflammation (LPS system) or T cell stimulation (SAg system), chronic Th1 inflammation driven by macrophage activation (lMphg system) and the T cell-dependent activation of B cells that occurs in germinal centers (BT system). The BE3C system (Th1) and the BF4T system (Th2) represent airway inflammation of the lung, while the MyoF system models myofibroblast-lung tissue remodeling. Lastly, skin biology is addressed in the KF3CT system modeling Th1 cutaneous inflammation and the HDF3CGF system modeling wound healing.
(§3) Each test agent generates a signature BioMAP profile that is created from the changes in protein biomarker readouts within individual system environments. Biomarker readouts (7-17 per system) are selected for therapeutic and biological relevance, are predictive for disease outcomes or specific drug effects and are validated using agents with known mechanism of action (MoA). Each readout is measured quantitatively by immune-based methods that detect protein (e.g., ELISA) or functional assays that measure proliferation and viability. BioMAP readouts are diverse and include cell surface receptors, cytokines, chemokines, matrix molecules and enzymes. In total, the Diversity PLUS panel contains 148 biomarker readouts that capture biological changes that occur within the physiological context of the particular BioMAP system. Specific BioMAP activities have been correlated to in vivo biology, and multiparameter BioMAP profiles have been used to distinguish compounds based on MoA and target selectivity across diverse physiological systems.
(§4) The Diversity PLUS panel allows test agent characterization in an unbiased way across a broad set of systems modeling various human disease states. These systems are designed to model complex human tissue and disease biology of the vasculature, skin, lung, and inflammatory tissues. Quantitative measurements of 148 biomarker activities across this broad panel, along with comparative analysis of biological activities from known bioactive agents, were used to predict and compare the efficacy and function of each selected compound at four concentrations (740 nm and 2.2, 6.7 and 20 μM). […]

Dermal fibroblasts = test: BioMAP Diversity PLUS HDF3CGF system (wound healing and matrix/tissue remodeling)
Experimental: as §1, §2
(§5) Each test agent generates a signature BioMAP profile that is created from the changes in protein biomarker readouts within individual system environments. Biomarker readouts (7-17 per system) are selected for therapeutic and biological relevance, are predictive for disease outcomes or specific drug effects and are validated using agents with known mechanism of action (MoA). Each readout is measured quantitatively by immune-based methods that detect protein (e.g., ELISA) or functional assays that measure proliferation and viability. BioMAP readouts are diverse and include cell surface receptors, cytokines, chemokines, matrix molecules and enzymes.
(§6) The Diversity PLUS panel allows test agent characterization in an unbiased way across a broad set of systems modeling various human disease states. These systems are designed to model complex human tissue and disease biology of the vasculature, skin, lung, and inflammatory tissues.
(§7) BioMAP systems are constructed with one or more primary cell types from healthy human donors, with stimuli (such as cytokines or growth factors) added to capture relevant signaling networks that naturally occur in human tissue or pathological conditions. Vascular biology is modeled in both a Th1 (3C system) and a Th2 (4H system) inflammatory environment, as well as in a Th1 inflammatory state specific to arterial smooth muscle cells (CASM3C system). Additional systems recapitulate aspects of the systemic immune response including monocyte-driven Th1 inflammation (LPS system) or T cell stimulation (SAg system), chronic Th1 inflammation driven by macrophage activation (lMphg system) and the T cell-dependent activation of B cells that occurs in germinal centers (BT system).

[2] = tested on: Venular endothelial cells, peripheral blood mononuclear cells; test: BioMAP Diversity PLUS LPS system (Th1 type chronic inflammation, monocyte activation); conditions: for Significant log10 reduction compared to nontreated controls: Secreted prostaglandin E2 (PGE2): LPS system; for secretion of prostaglandin E2 (PGE2): human cell system mimicking T-cell and monocyte driven chronic inflammation and cardiovascular diseases (FIG. 4)
Experimental: as §1, §2, §5, §6, §7

Lung fibroblasts = test: BioMAP Diversity PLUS MyoF system (myofibroblast differentiation and tissue remodeling)
Experimental: as §1, §2, §3, §4

[3] = tested on: Coronary artery smooth muscle cells; test: BioMAP Diversity PLUS CASM3C system (Th1 type vascular inflammation); conditions: for Significant log10 reduction compared to nontreated controls: Vascular cell adhesion molecule 1 (VCAM-1): CASM3C system
Experimental: as §1, §2, §5, §6, §7

[4] = tested on: Peripheral blood mononuclear cells, B cells; test: BioMAP Diversity PLUS BT system (T cell dependent B cell activation); conditions: BT system
Experimental: as §1, §2, §5, §6, §7

[5] = tested on: Bronchial epithelial cells, dermal fibroblasts; test: BioMAP Diversity PLUS BF4T system (Th2 type lung inflammation)
Experimental: as §1, §2, §3, §4

[6] = tested on: Bronchial epithelial cells; test: BioMAP Diversity PLUS BE3C system (Th1 type lung inflammation)
Experimental: as §1, §2, §3, §4

[7] = tested on: Macrophages, venular endothelial cells; test: BioMAP Diversity PLUS lMphg system (Th1 type chronic inflammation, macrophage activation); conditions: /Mphg system
Experimental: as §1, §2, §3, §4

CS(=O)(=O)CC[C@H](N)C(=O)O [Methionine sulfone]
T cell proliferation [1]: decreased
Significant log10 reduction compared to nontreated controls: Monocyte chemoattractant protein 1 (MCP-1) (Dermal fibroblasts; HDF3CGF system, 6.7 μM): −0.24 log10
decorin (Dermal fibroblasts; human cell system mimicking wound healing, remodeling, fibrosis and chronic inflammation (FIG. 7)): inhibitory activity
Significant log10 reduction compared to nontreated controls: Secreted prostaglandin E2 (PGE2) ([2]; 0.7 μM): −0.12 log10
Significant log10 reduction compared to nontreated controls: Secreted prostaglandin E2 (PGE2) ([2]; 2.2 μM): −0.08 log10
secretion of prostaglandin E2 (PGE2) [2]: lowered
Significant log10 reduction compared to nontreated controls: Decorin (Lung fibroblasts; 6.7 μM): −0.07 log10
Significant log10 reduction compared to nontreated controls: Decorin (Lung fibroblasts; 20.0 μM): −0.11 log10
Significant log10 reduction compared to nontreated controls: Vascular cell adhesion molecule 1 (VCAM-1) ([3]; 0.7 μM): −0.10 log10
Significant log10 reduction compared to nontreated controls: Vascular cell adhesion molecule 1 (VCAM-1) ([3]; 2.2 μM): −0.09 log10

O=C(O)c1cc(O)c2cccc(O)c2n1 [Xanthurenate]
interleukin 8 (IL-8) (Dermal fibroblasts; human cell system mimicking wound healing, remodeling, fibrosis and chronic inflammation (FIG. 8)): inhibitory activity
Significant log10 reduction compared to nontreated controls: Secreted interleukin 6 (IL-6) ([4]; 20.0 μM): −0.13 log10
Significant log10 reduction compared to nontreated controls: Secreted tumor necrosis factor alpha (TNFα) ([4]; 20.0 μM): −0.19 log10
Significant log10 reduction compared to nontreated controls: Secreted prostaglandin E2 (PGE2) ([2]; 6.7 μM): −0.16 log10
Significant log10 reduction compared to nontreated controls: Secreted prostaglandin E2 (PGE2) ([2]; 20.0 μM): −0.09 log10
secretion of prostaglandin E2 (PGE2) [2]: lowered
IL-6 ([3]; human cell system mimicking cardiovascular inflammation (FIG. 6)): lowered

lignoceroylcarnitine [Lignoceroylcarnitine (C24)]
Significant log10 reduction compared to nontreated controls: B cell proliferation ([4]; 0.7 μM): −0.15 log10
Significant log10 reduction compared to nontreated controls: B cell proliferation ([4]; 2.2 μM): −0.09 log10
Significant log10 reduction compared to nontreated controls: Secreted tumor necrosis factor alpha (TNFα) ([4]; 2.2 μM): −0.10 log10
Significant log10 reduction compared to nontreated controls: B cell proliferation ([4]; 6.7 μM): −0.09 log10
Significant log10 reduction compared to nontreated controls: Secreted interleukin 2 (IL-2) ([4]; 6.7 μM): −0.11 log10
Significant log10 reduction compared to nontreated controls: B cell proliferation ([4]; 20.0 μM): −0.07 log10
Significant log10 reduction compared to nontreated controls: Secreted interleukin 6 (IL-6) ([4]; 20.0 μM): −0.13 log10
Significant log10 reduction compared to nontreated controls: Secreted interleukin 17A (IL-17A) ([4]; 20.0 μM): −0.25 log10
Significant log10 reduction compared to nontreated controls: Keratin 8/18 ([5]; 0.7 μM): −0.07 log10
Significant log10 reduction compared to nontreated controls: Keratin 8/18 ([5]; 2.2 μM): −0.07 log10
Significant log10 reduction compared to nontreated controls: Keratin 8/18 ([5]; 6.7 μM): −0.09 log10
Significant log10 reduction compared to nontreated controls: Keratin 8/18 ([5]; 20.0 μM): −0.11 log10
Significant log10 reduction compared to nontreated controls: Interferon-inducible T cell alpha chemoattractant (I-TAC)/CXCL11 ([6]; 0.7 μM): −0.05 log10
Significant log10 reduction compared to nontreated controls: Interferon-inducible T cell alpha chemoattractant (I-TAC)/CXCL11 ([6]; 2.2 μM): −0.12 log10
Significant log10 reduction compared to nontreated controls: Monocyte chemoattractant protein 1 (MCP-1) ([7]; 2.2 μM): −0.29 log10
Significant log10 reduction compared to nontreated controls: Monocyte chemoattractant protein 1 (MCP-1) ([7]; 6.7 μM): −0.16 log10
Significant log10 reduction compared to nontreated controls: Monocyte chemoattractant protein 1 (MCP-1) ([7]; 20.0 μM): −0.11 log10
Significant log10 reduction compared to nontreated controls: Alpha smooth muscle actin (αSMA) (Lung fibroblasts; 0.7 μM): −0.08 log10
Significant log10 reduction compared to nontreated controls: Alpha smooth muscle actin (αSMA) (Lung fibroblasts; 2.2 μM): −0.13 log10
Significant log10 reduction compared to nontreated controls: Alpha smooth muscle actin (αSMA) (Lung fibroblasts; 6.7 μM): −0.18 log10
Significant log10 reduction compared to nontreated controls: Alpha smooth muscle actin (αSMA) (Lung fibroblasts; 20.0 μM): −0.20 log10
